Experimental data from patent US5210193A, “Piperazine derivatives” (American Cyanamid Company, priority 1990, dated 1993).
Converted amounts (≈) assume the structure as drawn. “And” between values parts separate entries of the source, which are not always exact repeats. Equal values may be shown once. Read-outs that look alike come from different tables or passages of the source.

Tests used:
Experiment in all cases: in vitro antibacterial MIC, agar plate dilution
Assay type in all cases: cell-based
[1] = test system: Proteus rettgeri IO 83-21; conditions: Providencia rettgeri, IO8321, 18 h, 35° C., read-out: MIC
Outline: (§1)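 Agar plate dilution on Mueller-Hinton agar, inoculum approximately 10^4 CFU per organism applied with a Steers replicator. MIC (mcg/ml) is the lowest compound concentration inhibiting visible growth after 18 hours at 35° C.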

[2] = test system: Klebsiella pneumoniae CMC 84-31; conditions: Klebsiella pneumoniae, CMC8431, 18 h, 35° C., read-out: MIC
Outline: as §1

[3] = test system: Citrobacter div. K 82-24; conditions: Citrobacter, DIV.K8224, 18 h, 35° C., read-out: MIC
Outline: as §1

[4] = test system: Morganella morganii VHG 84-12; conditions: Morganella morganii, VHG8412, 18 h, Morganella morganii VHG 84-12 (VGH 84-12 for Example 131), 35° C., read-out: MIC
Outline: as §1

[5] = test system: Staphylococcus aureus CMC 83-131; conditions: Staphylococcus aureus, CMC83131, 18 h, 35° C., read-out: MIC
Outline: as §1

[6] = test system: Serratia marcescens CMC 83-74; conditions: Serratia marcescens, CMC8374, 18 h, 35° C., read-out: MIC
Outline: as §1

[7] = test system: Pseudomonas aeruginosa VGH 84-4; conditions: 35° C.
Outline: as §1

[8] = test system: Klebsiella pneumoniae MOR 84-24; conditions: Klebsiella pneumoniae, MOR8424, 18 h, 35° C., read-out: MIC
Outline: as §1

[9] = test system: Streptococcus faecalis VGH 84-69; conditions: Enterococcus faecalis, VGH8469, 18 h, 35° C., read-out: MIC
Outline: as §1

[10] = test system: Escherichia coli VGH 84-19; conditions: Escherichia coli, VGH8419, 18 h, 35° C., read-out: MIC
Outline: as §1

[11] = test system: Staphylococcus aureus Smith; conditions: 35° C.
Outline: as §1

[12] = test system: Klebsiella pneumoniae IO 83-5; conditions: Klebsiella pneumoniae, IO835, 18 h, 35° C., read-out: MIC
Outline: as §1

[13] = test system: Morganella morganii CMC 84-38; conditions: 35° C.
Outline: as §1

[14] = test system: Providencia stuarti CMC 83-3; conditions: Providencia, CMC833, 18 h, 35° C., read-out: MIC
Outline: as §1

[15] = test system: Proteus rettgeri CMC 84-41; conditions: Providencia rettgeri, CMC8441, 18 h, 35° C., read-out: MIC
Outline: as §1

[16] = test system: Staphylococcus aureus VGH 84-45; conditions: 35° C.
Outline: as §1

[17] = test system: Pseudomonas aeruginosa K 84-16; conditions: Pseudomonas aeruginosa, K8416, 18 h, 35° C., read-out: MIC
Outline: as §1

[18] = test system: Pseudomonas aeruginosa VGH 84-3; conditions: Pseudomonas aeruginosa, VGH843, 18 h, 35° C., read-out: MIC
Outline: as §1

[19] = test system: Streptococcus faecalis UCI 85-30; conditions: Enterococcus faecalis, UCI8530, 18 h, 35° C., read-out: MIC
Outline: as §1

[20] = test system: Escherichia coli MOR 84-20; conditions: Escherichia coli, MOR8420, 18 h, 35° C., read-out: MIC
Outline: as §1

[21] = test system: Morganella morganii MOR 84-45; conditions: Morganella morganii, MOR8445, 18 h, 35° C., read-out: MIC
Outline: as §1

[22] = test system: Serratia marcescens IO 83-63; conditions: IO8363, 18 hours, 35° C.
Outline: as §1

[23] = test system: Escherichia coli ATCC 25922; conditions: 35° C.
Outline: as §1

[24] = test system: Serratia marcescens MOR 84-41; conditions: Serratia marcescens, MOR8441, 18 h, 35° C., read-out: MIC
Outline: as §1

[25] = test system: Pseudomonas aeruginosa CMC 83-20; conditions: Pseudomonas aeruginosa, CMC8320, 18 h, 35° C., read-out: MIC
Outline: as §1

[26] = test system: Escherichia coli CMC 84-11; conditions: Escherichia coli, CMC8411, 18 h, 35° C., read-out: MIC
Outline: as §1

[27] = test system: Enterobacter cloacae VGH 84-39; conditions: Enterobacter cloacae, VGH8439, 18 h, 35° C., read-out: MIC
Outline: as §1

[28] = test system: Streptococcus faecalis UCI 85-19; conditions: Enterococcus faecalis, UCI8519, 18 h, 35° C., read-out: MIC
Outline: as §1

[29] = test system: Serratia marcescens VGH 84-30; conditions: Serratia marcescens, VGH8430, 18 h, 35° C., read-out: MIC
Outline: as §1

[30] = test system: Pseudomonas aeruginosa LL-1244; conditions: Pseudomonas aeruginosa, LL1244, 18 h, 35° C., read-out: MIC
Outline: as §1

[31] = test system: Escherichia coli LL 311; conditions: Escherichia coli, LL311, 18 h, 35° C., read-out: MIC
Outline: as §1

[32] = test system: Enterobacter cloacae K 84-10; conditions: Enterobacter cloacae, K8410, 18 h, 35° C., read-out: MIC
Outline: as §1

Row | SMILES | MIC [1] [µg/mL] | MIC [2] [µg/mL] | MIC [3] [µg/mL] | MIC [4] [µg/mL] | MIC [6] [µg/mL] | MIC [8] [µg/mL] | MIC [9] [µg/mL] | MIC [10] [µg/mL] | MIC [12] [µg/mL] | MIC [14] [µg/mL] | MIC [15] [µg/mL] | MIC [17] [µg/mL] | MIC [18] [µg/mL] | MIC [19] [µg/mL] | MIC [20] [µg/mL] | MIC [21] [µg/mL] | MIC [22] [µg/mL] | MIC ([23]; 18 hours) | MIC [24] [µg/mL] | MIC [25] [µg/mL] | also measured
1 | O=C(O)c1cn(C2CC2)c2cc(N3CCNC(c4ccco4)C3)c(F)cc2c1=O (centres unmarked) [Example 62, 1-Cyclopropyl-6-fluoro-7-[3-(2-furanvl)-1-piperazinyl]-1,4-dihydro-4-oxo-3-quinolinecarboxylic acid] | 0.25 (≈ 0.629 µM) | 0.12 (≈ 0.302 µM) | 0.12 (≈ 0.302 µM) | 0.5 (≈ 1.26 µM) | 16 (≈ 40.3 µM) | 0.25 (≈ 0.629 µM) | 0.5 (≈ 1.26 µM) | 0.06 (≈ 0.151 µM) | 0.25 (≈ 0.629 µM) | 16 (≈ 40.3 µM) | 0.06 (≈ 0.151 µM) | 8 (≈ 20.1 µM) | > 16 | 1 (≈ 2.52 µM) | 0.06 (≈ 0.151 µM) | 0.12 (≈ 0.302 µM) | 1 (≈ 2.52 µM) | 0.03 µg/mL and 0.06 µg/mL | 0.5 (≈ 1.26 µM) | 8 (≈ 20.1 µM) | MIC [5]: 0.25 µg/mL (≈ 0.629 µM); MIC ([7]; 18 hours): 1 µg/mL (≈ 2.52 µM); MIC ([11]; 18 hours): 0.015 µg/mL (≈ 0.0377 µM); MIC ([13]; 18 hours): 0.25 µg/mL (≈ 0.629 µM); MIC ([16]; 18 hours): 0.015 µg/mL (≈ 0.0377 µM); MIC [26]: 0.03 µg/mL (≈ 0.0755 µM); MIC [27]: 0.12 µg/mL (≈ 0.302 µM)
2 | O=C(O)c1cn(C2CC2)c2cc(N3CCNC(c4ccoc4)C3)c(F)cc2c1=O (centres unmarked) [Example 92] | 0.5 (≈ 1.26 µM) | 0.12 (≈ 0.302 µM) | 0.06 (≈ 0.151 µM) | 0.25 (≈ 0.629 µM) | 8 (≈ 20.1 µM) | 0.25 (≈ 0.629 µM) | 1 (≈ 2.52 µM) | 0.06 (≈ 0.151 µM) | 0.25 (≈ 0.629 µM) | 8 (≈ 20.1 µM) | 0.12 (≈ 0.302 µM) | 4 (≈ 10.1 µM) | 16 (≈ 40.3 µM) | 1 (≈ 2.52 µM) | 0.06 (≈ 0.151 µM) | 0.12 (≈ 0.302 µM) | 1 (≈ 2.52 µM) | 0.12 µg/mL (≈ 0.302 µM) | 0.25 (≈ 0.629 µM) | 4 (≈ 10.1 µM) | MIC [28]: 1 µg/mL (≈ 2.52 µM); MIC [29]: 4 µg/mL (≈ 10.1 µM); MIC [30]: 2 µg/mL (≈ 5.03 µM); MIC ([7]; Pseudomonas aeruginosa, VGH844, 18 h, read-out: MIC): 2 µg/mL (≈ 5.03 µM); MIC ([11]; Staphylococcus aureus, 18 h, read-out: MIC): 0.03 µg/mL (≈ 0.0755 µM); MIC [31]: 0.03 µg/mL (≈ 0.0755 µM); MIC ([13]; Morganella morganii, CMC8438, 18 h, read-out: MIC): 0.25 µg/mL (≈ 0.629 µM); MIC ([16]; Staphylococcus aureus, VGH8445, 18 h, read-out: MIC): 0.03 µg/mL (≈ 0.0755 µM); MIC [32]: 0.06 µg/mL (≈ 0.151 µM); MIC ([23]; Escherichia coli, ATCC25922, 18 h, read-out: MIC): 0.06 µg/mL (≈ 0.151 µM); MIC [26]: 0.03 µg/mL (≈ 0.0755 µM); MIC [27]: 0.12 µg/mL (≈ 0.302 µM)
